Laboratory results: article PMC9716558, “A Chiral ^19F NMR Reporter of Foldamer Conformation in Bilayers” (Journal of the American Chemical Society, 2022)
Non-standard residues stand in square brackets, D forms with d. Residues, ends and D or L forms follow the SMILES beside them. *: point of attachment. d(αMeV) = CC(C)[C@@](C)(N)C(=O)O; αMeV = CC(C)[C@](C)(N)C(=O)O; X1 = C[C@@H](N*)C(F)(F)F; Cbz = O=C(OCc1ccccc1)*; Aib = CC(C)(N)C(=O)O

Assay: Maximum solubility of foldamer in chloroform (saturated solution, 1H NMR)
Assay type: physicochemical
Details: thermodynamic, dissolved in CDCl3 until saturated; concentration by 1H NMR against a known concentration of CH2Cl2 as internal reference
Method: 9. Quantification of foldamer solubility and self-association in CHCl3
9.1 Experimental procedure (dilution)
Compounds 5d (L-αMeVal) and 5e (D-αMeVal) were dissolved in CDCl3 until saturated solutions were formed.
The initial concentration of each sample was measured using a known concentration of CH2Cl2 as an internal […]
Additional volumes of CDCl3 were added to the initial solution and the 1H NMR spectrum at each concentration […]
The binding isotherms were generated using an Excel spreadsheet macro developed by Sanderson.S7a The Solver add-in for Excel was used to calculate the best fit to the NMR data using the ‘GRG onlinear Solvin […]
The following equilibrium is used to calculate the binding isotherms:
Where Kdim is the microscopic association constant and n = 2.
The following equation is used to calculate the binding isotherm: […]
δfree is the free chemical shift of the host
δobs is the observed chemical shift […]
The concentration of the dimeric complex (H)2 is calculated iteratively by solving the following equations: […]
The concentration of free host is calculated according to the concentration difference […]
The propensity of the L-αMeVal-capped foldamer 5d and D-αMeVal-capped foldamer 5e to self-associate was investigated in chloroform by performing a dilution study,S7 which at the same time quantified the solubility of these compounds in this solvent. […]

Row | SMILES | maximum solubility in CHCl3 / chloroform-d
1 | CC(C)[C@](C)(NC(=O)OCc1ccccc1)C(=O)NC(C)(C)C(=O)NC(C)(C)C(=O)NC(C)(C)C(=O)NC(C)(C)C(=O)N[C@H](C)C(F)(F)F [5d, Cbz(L-MeVal)Aib4(R-TFEA)] (Cbz-[αMeV][Aib][Aib][Aib][Aib]-X1) | 288 mM
2 | CC(C)[C@@](C)(NC(=O)OCc1ccccc1)C(=O)NC(C)(C)C(=O)NC(C)(C)C(=O)NC(C)(C)C(=O)NC(C)(C)C(=O)N[C@H](C)C(F)(F)F [5e, Cbz(D-MeVal)Aib4(R-TFEA)] (Cbz-[d(αMeV)][Aib][Aib][Aib][Aib]-X1) | 50 mM
